Holding throughout (type): in vivo, human
Assay [1] relates to healthy, young male and female adults. The experiment in a line: Cognitive Demand Battery (CDB), overall performance. Particulars: for Beneficial effect on fatigue / cognitive function, overall statement: general statement, preliminary findings for acetyl-L-carnitine. An excerpt: The working hypothesis underlying this approach is that neural activity is costly in terms of local neural resources (e.g. metabolic substrates) and that the brain is therefore liable to suffer deficiencies in the short term. Any psychoactive properties of a test substance are therefore liable to be more readily apparent during this period of intense cognitive demand and the ‘mental fatigue’ state elicited by prolonged task performance. This paradigm may therefore be more sensitive than the use of less demanding cognitive tasks, particularly if an intervention has an impact on the delivery or utilisation of metabolic substrates.
(§1) In the current double-blind, placebo-controlled, balanced cross-over experiment we assessed the effects of single doses of LC (500 mg and 2000 mg) and ALC (1000 mg), administered on separate occasions, on mental fatigue and cognitive function during extended performance of mentally demanding tasks in healthy, young male and female adults.
(§2) 20 healthy adults (10 male, 10 female, 18 to 25 years) who had not taken prescription or illicit drugs or any food supplements within the preceding 4 weeks were recruited. Smokers and excessive consumers of caffeine were excluded, as were those who had consumed alcohol or caffeine within the 12 hours prior to a testing session.
Each participant received each treatment in an order counterbalanced by random allocation to a Latin square. Depending on the condition to which the participant was allocated on each day they received 4 capsules containing either 500 mg LC or 500 mg ALC or a placebo which were combined to give a total dose of either:
(§3) The objective of this battery is to assess the impact of a treatment on speed/accuracy and mental fatigue during continuous performance of cognitively demanding tasks. […] The 10 minute battery comprises:
(§4) Following the introductory visit participants attended the laboratory at 8.30 am on four further occasions, one week apart, receiving a different treatment on each occasion. They fasted (no food or drink except for water) and consumed no caffeine or alcohol for at least 12 hours prior to each session. On their first study day participants were randomly allocated to a treatment regime on the Latin square. On arrival on each occasion participants consumed a standard breakfast (40 g Kellogg's All-bran with 150 ml skimmed milk and a glass of water) following which they undertook an initial cognitive/mood assessment comprising completion of the attention tasks (‘Simple’/‘Choice’/‘Four choice’ reaction time) followed by 2 completions of the 10 minute CDB tasks (the first completion was a practice and the second was used for baseline assessment of performance) and the Stroop and Logical Reasoning tasks. They then consumed their treatment for that day. At 120 minutes post-dose they completed the attention tasks then commenced the full 60 minute (i.e. 6 completions of the 10 minutes of tasks) CDB. […] Mood was assessed with Bond-Lader mood scales pre-treatment and before and after the post-treatment cognitive assessment. […]
(§5) Statistical analysis for all of the cognitive/fatigue and mood measures derived from the battery were analysed by repeated measures Analysis of Variance (ANOVA) of baseline adjusted data (calculated against pre-dose). Measures with a single post-dose repetition (attention tasks, executive tasks) were analysed by one way ANOVA (condition). Measures with multiple post-dose repetitions (Mood, CDB) were analysed with two way ANOVA (condition×repetition). […]

Assay [2] has the same test system. Nature of the assay: Bond-Lader mood scales. The method, then: as §1, §2
Prior to and following the tasks mood was assessed with Bond and Lader scales. This measure has been utilised in numerous pharmacological, psychopharmacological and medical trials. The scales comprise a total of sixteen lines (approximately 100 mm on screen) anchored at either end by antonyms (e.g. alert-drowsy, calm-excited). Subjects indicate their current subjective position between the antonyms on the line. Individual item scores were calculated as % distance along the line. Outcomes comprised three factor analysis derived scores: ‘Alertness’, ‘Calmness’ and ‘Contentment’.
(§6) Following the introductory visit participants attended the laboratory at 8.30 am on four further occasions, one week apart, receiving a different treatment on each occasion. They fasted (no food or drink except for water) and consumed no caffeine or alcohol for at least 12 hours prior to each session. On their first study day participants were randomly allocated to a treatment regime on the Latin square. On arrival on each occasion participants consumed a standard breakfast (40 g Kellogg's All-bran with 150 ml skimmed milk and a glass of water) following which they undertook an initial cognitive/mood assessment comprising completion of the attention tasks (‘Simple’/‘Choice’/‘Four choice’ reaction time) followed by 2 completions of the 10 minute CDB tasks (the first completion was a practice and the second was used for baseline assessment of performance) and the Stroop and Logical Reasoning tasks. They then consumed their treatment for that day. At 120 minutes post-dose they completed the attention tasks then commenced the full 60 minute (i.e. 6 completions of the 10 minutes of tasks) CDB. Following completion of the CDB participants completed the ‘Logical Reasoning’ and the ‘Stroop’ executive function tasks. Mood was assessed with Bond-Lader mood scales pre-treatment and before and after the post-treatment cognitive assessment. The set-up is shown schematically in FIG. 1.
(§7) Statistical analysis for all of the cognitive/fatigue and mood measures derived from the battery were analysed by repeated measures Analysis of Variance (ANOVA) of baseline adjusted data (calculated against pre-dose). Measures with a single post-dose repetition (attention tasks, executive tasks) were analysed by one way ANOVA (condition). Measures with multiple post-dose repetitions (Mood, CDB) were analysed with two way ANOVA (condition×repetition). Planned comparisons (placebo versus each active treatment) were then undertaken on baseline adjusted data from the single completion, or each of the multiple completions, as appropriate, utilising t-tests with Mean Squares Error from the ANOVA (Keppel 1991).

Assay [3] shares this test system. Nature of the assay: Cognitive Demand Battery: Serial Threes subtractions. The method, then:
as §1, §2, §3
Modified, two minute, computerised versions of the Serial Threes and Serial Sevens tests were utilised. For both tasks a standard instruction screen informed the participant to count backwards in threes or sevens from the given randomly generated number, as quickly and accurately as possible, using the linear number keys to enter each response. Participants were also instructed verbally that if they made a mistake they should continue subtracting from the new, incorrect number. Each three-digit response was entered using the linear number keys on the keyboard with each digit being represented on screen by an asterisk. Pressing the enter key signals the end of each response and clears the three asterisks from the screen. The task was scored for total number of subtractions and number of errors. In the case of incorrect responses, subsequent responses were scored as positive if they were correct in relation to the new number.
as §4, §5

Assay [4] shares this test system. Nature of the assay: Cognitive Demand Battery: subjective 'mental fatigue' scale. The method, then:
as §1, §2, §3
At the end of each set of tasks participants were asked to indicate how mentally fatigued they felt by marking a 100 mm line with the end-points labelled “not at all” and “extremely”.
as §4, §5

Assay [5] has as its system healthy male and female individuals aged between 20 and 40 years. Nature of the assay: CogState 12 minute Early Phase cognitive test battery. The method, then:
Effects of carnitine on cognitive function were studied with a CogState™ 12 minute Early Phase cognitive test battery. The test was developed by CogState, US, and is described in U.S. Pat. No. 7,163,513 B2. The test uses playing cards and computer mazes for measuring the cognitive domains of executive function, psychomotor function, visual attention and visual learning. Tasks correspond to cognitive domains as follows: Maze learning task. […] It was carried out with 20 healthy male and female individuals aged between 20 and 40 years. The test was double-blind and placebo-controlled and studied effects of 500 mg L-carnitine, administered as 736 mg L-carnitine L-tartrate (Carnipure™ tartrate, Lonza AG) in water in a single dose. A single test battery of about 10 min comprised maze learning task, a detection task with playing cards, an identification task with playing cards and a one card learning task. Consecutive accomplishing of the test battery took place twice prior to and hourly after intake of the study preparation over a period of 6 hours.

Assay [6] has as its system healthy, young male and female adults. The experiment in a line: Cognitive Demand Battery: Rapid Visual Information Processing task (RVIP). The method, then: as §1, §2, §3
The participants monitored a continuous series of digits for targets of three consecutive odd or three consecutive even digits. The digits were presented at the rate of 100 per minute and the participants responded to the detection of a target string by pressing a response key as quickly as possible. The task is continuous and lasts for 5 minutes, with 8 correct target strings being presented in each minute. The task was scored for percentage of target strings correctly detected, average reaction time for correct detections, and number of false alarms.
as §6, §7

Assay [7] shares this test system. The experiment in a line: Cognitive Demand Battery: Serial Sevens subtractions. The method, then:
as §1, §2, §3
Modified, two minute, computerised versions of the Serial Threes and Serial Sevens tests were utilised. […] The task was scored for total number of subtractions and number of errors. In the case of incorrect responses, subsequent responses were scored as positive if they were correct in relation to the new number.
Following the introductory visit participants attended the laboratory at 8.30 am on four further occasions, one week apart, receiving a different treatment on each occasion. […] Mood was assessed with Bond-Lader mood scales pre-treatment and before and after the post-treatment cognitive assessment. […]
as §5

Setting [8] is: 500 mg single dose in water, hourly over 6 hours.

As to `CC(=O)O[C@H](CC(=O)[O-])C[N+](C)(C)C` [ALC, acetyl-L-carnitine], in assay [1] (1000 mg single dose), the “Performance of the CDB in comparison to placebo” value was “no evidence of benefits”. In addition, the “Beneficial effect on fatigue / cognitive function, overall statement” value in assay [1] is listed as “at best moderate”. For the same compound, the “Bond-Lader content rating compared to placebo” value is listed as “less content” in assay [2] (1000 mg single dose, after the post-dose tasks, p=0.015) and “less content” in assay [2] (1000 mg single dose, before the post-dose tasks, p=0.001). The “Bond-Lader alert rating compared to placebo” value in assay [2] (1000 mg single dose, before undertaking the post-dose tasks, p=0.009) is reported as “less alert”. The “Bond-Lader alertness (summary of findings)” value in assay [2] (1000 mg single dose, second post-dose time-point as printed) is listed as “lower levels of alertness”.

Turning to `C[N+](C)(C)C[C@H](O)CC(=O)[O-]` [LC, L-carnitine], the “Serial 3s number of subtractions compared to placebo” value in assay [3] (500 mg single dose, 2nd repetition, p=0.08) was “statistical trends towards the same effect”; in assay [3] (500 mg single dose, 3rd repetition, p=0.09), “statistical trends towards the same effect”; in assay [3] (500 mg single dose, 4th repetition, planned comparison p=0.006), “more subtractions”; in assay [3] (500 mg single dose, 6th repetition, p=0.016) it was “more subtractions”; in assay [3] (2000 mg single dose, 5th repetition, p=0.04, may be type 1 error), “more subtractions”. In addition, the “Performance of the CDB in comparison to placebo” value is “significant improvements in performance of the CDB” in assay [1] (500 mg single dose, planned comparisons) and “no evidence of benefits” in assay [1] (2000 mg single dose). Also, the “Beneficial effect on fatigue / cognitive function, overall statement” value in assay [1] is reported as “pronounced”. Further, the “Bond-Lader content rating compared to placebo” value in assay [2] (500 mg single dose, first (pre-task) post-dose assessment, p=0.004) was “less content”. Further, the “Bond-Lader calm rating compared to placebo” value in assay [2] (500 mg single dose, first (pre-task) post-dose assessment, p=0.037) is “less calm”; in assay [2] (500 mg single dose, post task assessment, p=0.016), “more calm”. The “Subjective mental fatigue rating compared to placebo” value in assay [4] (500 mg single dose, 4th repetition, p=0.065) is reported as “trend towards the same effect”; in assay [4] (500 mg single dose, 6th repetition, p=0.033), “ratings of fatigue were lower”; in assay [4] (500 mg single dose, after each repetition, numerical, significant only after the last set) it was “numerically less ‘mentally fatigued’”; in assay [4] (2000 mg single dose, 5th repetition, p=0.02), “higher than placebo”. Also, in assay [5] (500 mg single dose in water, after four, five and six hours), the “Psychomotor function (detection task)” value is “decrease of psychomotor function”. Also, the “Higher cognitive processes, such as memory and executive function” value in assay [5] (500 mg single dose in water, at the time of decreased psychomotor function (4-6 hours)) is reported as “not impaired”. For the same compound, in assay [5] (setting [8]), the “Visual attentional function (identification task)” value is reported as “no significant effect”. For the same compound, the “Visual learning (one card learning task)” value in assay [5] (setting [8]) was “no significant effect”. The “Executive function (maze learning task)” value in assay [5] (500 mg single dose in water, two hours after intake, individuals without fatigue) is “some evidence for a short-acting benefit”. Also, the “Long time improvement of cognitive function” value in assay [5] (500 mg single dose, beyond approximately two hours) was “not observed”. The “RVIP accuracy compared to placebo” value in assay [6] (500 mg single dose, 2nd repetition, p=0.015) was “outperformed placebo”; in assay [6] (500 mg single dose, 3rd repetition, p=0.036) it was “outperformed placebo”; in assay [6] (500 mg single dose, 4th repetition, p=0.07), “trend towards the same effect”. In addition, the “RVIP speed of responses compared to placebo” value is listed as “performed faster” in assay [6] (500 mg single dose, 3rd repetition, p=0.013); “performed faster at each repetition” in assay [6] (500 mg single dose, each of 6 repetitions, significant only at the 3rd); “trend towards slower responding” in assay [6] (2000 mg single dose, 4th repetition, p=0.089). For the same compound, the “Serial 7s number of subtractions compared to placebo” value in assay [7] (500 mg single dose, 2nd repetition, p=0.044) was “more subtractions”; in assay [7] (500 mg single dose, 4th repetition, p=0.018), “more subtractions”; in assay [7] (2000 mg single dose, 4th repetition, p=0.053) it was “trend towards more subtractions”.

These data come from patent publication US10130602B2, “Use of L-carnitine, salts and derivatives thereof for reducing or preventing fatigue and improving cognitive function” (priority 2011, dated 2018).
